{"source": "paper PMC11436758", "about": "“Computer-aided drug design to generate a unique antibiotic family” (Nature Communications, 2024)", "key": {"[1]": {"system": "MRSA (ATCC 33591)", "experiment": "Rabbit ischemic ear wound model of infection by MRSA, topical treatment", "type": "in vivo, New Zealand White rabbits", "settings": "for % wound closure / wound size (mean) / Wound size (mm2): Fig 2c", "procedure": "New Zealand White rabbits from Charles River were employed for this study. Both male and female rabbits were used; sample size prevented disaggregation of data by sex. Investigators were blinded to group allocation, data collection, and data analysis. Food and water were given ad libidum and animals were acclimatized for 7 days with photoperiods of alternating 12 h light and dark at 21 °C in relative humidity of 40–50%. The formulation for delivery of DNM compounds was Glaxal base (WellSpring Pharmaceutical Canada Corp., Oakville, Canada). Formulation was performed by dissolving compound in Glaxal base to give final concentrations of 1% or 2% DNM compound (w/v). The analgesic (Buprenex 0.02 mg/kg sc) and anesthesia (isoflurane (0.5–5% with oxygen carrier 0.5–2 L/min) were used as required during procedures. An ischemia wound healing model was conducted surgically. Each wound was inoculated with 50 μl of 2 × 10^7 CFU/mL MRSA (ATCC #33591) and dressed. After 1 day, wounds were treated with either 50 μl control cream containing vehicle or 50 μl cream containing compound daily. Wounds were assessed and observations recorded using the Draize scoring system. Digital photographs of each wound were obtained and documented."}, "[2]": {"experiment": "Histopathology (H&E) of treated rabbit ischemic ear wounds, dermal toxicity", "settings": "Suppl Fig 7, score per wound", "description": "Wounds were excised, fixed, and routine H&E staining was performed. Wounds were examined for pathology and scored in a blinded manner.\nPost-wounding, under anesthesia, animals were euthanized with an intravenous injection of Beuthanasia-D at a dosage of 150 mg/kg of body weight. Specimens including the entire wound, along with ~2–3 mm of the normal unwounded skin margins were harvested. Each ear wound specimen was sectioned into halves. For one half of the wound, the wound was placed into a container with 10% neutral buffered formalin and processed for routine histological evaluation. Wounds were scored on a scale of 0–4 at the wound site for erythema, edema, inflammation, granulation, angiogenesis, and epithelialization. Wounds were characterized in a blinded manner by a board-certified member of the College of American Pathologists."}, "[3]": {"system": "S. aureus (VISA)", "experiment": "MIC, clinical and laboratory strains", "type": "cell-based", "procedure": "(§1) The medium employed for the assay was Mueller Hinton II Broth (MHB II; Becton-Dickinson, Sparks, MD, USA). Agar plates used for the organisms were trypticase soy agar plus 5% sheep blood (BD; Sparks, MD, USA). MIC assay plates were prepared using the CLSI broth microdilution procedure. Automated liquid handlers (Multidrop 384, Biomek 2000 and Biomek FX) were used to conduct serial dilutions and liquid transfers. A standardized inoculum of each organism was prepared per CLSI methods. Suspensions were prepared to equal a 0.5 McFarland standard, followed by a 1:20 dilution in test media. The inocula were dispensed into sterile reservoirs divided by length (Beckman Colter) and the Biomek 2000 was used to inoculate the plates. Daughter plates were placed on the Biomek 2000 work surface in reverse orientation so that inoculation took place from low to high drug concentration. The Biomek 2000 delivered 10 μL of the diluted suspension into each well. These inoculations yielded a final cell concentration in the daughter plates of ~5 × 10^5 colony-forming units/mL in each well. The wells of the daughter plates ultimately contained 185 μL of broth, 5 μL of drug solution, and 10 μL of bacterial inoculum. Plates were covered with a sterile lid on the top plate, placed in plastic bags, and incubated at 35 °C for ~18 h. The microplates were viewed from the bottom using a plate viewer and the MIC was read. The MIC was recorded as the lowest concentration of drug that inhibited visible growth of the organism."}, "[4]": {"system": "S. aureus (MSSA)", "experiment": "MIC, clinical and laboratory strains", "type": "cell-based", "procedure": "as §1"}, "[5]": {"system": "S. aureus (MRSA)", "experiment": "MIC, clinical and laboratory strains", "type": "cell-based", "procedure": "as §1"}, "[6]": {"system": "102 ATCC strains and clinical isolates of Staphylococcus, Streptomyces, and Enterococcus", "experiment": "MIC panel summary over all strains", "type": "cell-based", "settings": "of 102 strains", "procedure": "We also sought to determine if DNM0547 was bacteriostatic or bactericidal. Time kill experiments were carried out using increasing doses of DNM0547 against two different strains of MRSA.\nas §1"}}, "note": "Several values for one entry are separate records, joined by “and”; a condition that tells them apart may be missing. Equal entries are not always repeated. Entries after “also recorded” stand apart in the source; their conditions may differ.", "data": [{"smiles": "C/C(=C\\C(=O)OCCCCCCCCC(=O)O)C[C@@H]1OC[C@H](C[C@@H]2O[C@H]2[C@@H](C)[C@H](C)O)[C@@H](O)[C@H]1O", "note": "[mupirocin]", "values": [{"measurement": "CFUs", "setting": "[1]; Fig 2b, individual wounds", "value": "0 CFUs (6×) and 4120 CFUs"}, {"measurement": "% wound closure", "setting": "[1]; Day 1", "value": 0, "unit": "%"}, {"measurement": "wound size (mean)", "setting": "[1]; Day 1", "value": 34.3, "unit": "mm2"}, {"measurement": "% wound closure", "setting": "[1]; Day 3", "value": 3.64, "unit": "%"}, {"measurement": "wound size (mean)", "setting": "[1]; Day 3", "value": 33.056, "unit": "mm2"}, {"measurement": "wound size (mean)", "setting": "[1]; Day 5", "value": 31.872, "unit": "mm2"}, {"measurement": "% wound closure", "setting": "[1]; Day 7", "value": 10.3, "unit": "%"}, {"measurement": "wound size (mean)", "setting": "[1]; Day 7", "value": 30.776, "unit": "mm2"}, {"measurement": "% wound closure", "setting": "[1]; Day 10", "value": 22.68, "unit": "%"}, {"measurement": "wound size (mean)", "setting": "[1]; Day 10", "value": 26.526, "unit": "mm2"}, {"measurement": "% wound closure", "setting": "[1]; Day 14", "value": 43.29, "unit": "%"}, {"measurement": "wound size (mean)", "setting": "[1]; Day 14", "value": 19.45, "unit": "mm2"}, {"measurement": "% wound closure", "setting": "[1]; Day 18", "value": 53.8, "unit": "%"}, {"measurement": "wound size (mean)", "setting": "[1]; Day 18", "value": 15.838, "unit": "mm2"}, {"measurement": "Wound size (mm2)", "setting": "[1]; individual wounds, Day 1", "value": "36.53 mm2 and 30.25 mm2 and 32.45 mm2 and 37.03 mm2 and 35.24 mm2"}, {"measurement": "Wound size (mm2)", "setting": "[1]; individual wounds, Day 3", "value": "33.98 mm2 and 27.23 mm2 and 29.57 mm2 and 36.33 mm2 and 38.17 mm2"}, {"measurement": "Wound size (mm2)", "setting": "[1]; individual wounds, Day 5", "value": "33.31 mm2 and 25.96 mm2 and 29.21 mm2 and 35.69 mm2 and 35.19 mm2"}, {"measurement": "Wound size (mm2)", "setting": "[1]; individual wounds, Day 7", "value": "31.43 mm2 and 25.29 mm2 and 28.29 mm2 and 34.94 mm2 and 33.93 mm2"}, {"measurement": "Wound size (mm2)", "setting": "[1]; individual wounds, Day 10", "value": "30.25 mm2 and 23.34 mm2 and 26.6 mm2 and 26.26 mm2 and 26.18 mm2"}, {"measurement": "Wound size (mm2)", "setting": "[1]; individual wounds, Day 14", "value": "23.68 mm2 and 17.17 mm2 and 19.28 mm2 and 18.84 mm2 and 18.28 mm2"}, {"measurement": "Wound size (mm2)", "setting": "[1]; individual wounds, Day 18", "value": "20.63 mm2 and 12.49 mm2 and 12.8 mm2 and 15.19 mm2 and 18.08 mm2"}, {"measurement": "wound healing compared with control", "setting": "[1]; topical 2%", "value": "did not alter wound healing from control; also recorded: not statistically significant"}, {"measurement": "Edema", "setting": "[2]", "value": 2}, {"measurement": "Erythema", "setting": "[2]", "value": 2}, {"measurement": "Inflammation", "setting": "[2]", "value": "3 and 4"}, {"measurement": "MIC", "setting": "[3]; S. aureus (VISA) 1724", "value": 0.25, "unit": "µg/mL"}, {"measurement": "MIC", "setting": "[3]; S. aureus (VISA) 2012", "value": 1, "unit": "µg/mL"}, {"measurement": "MIC", "setting": "[3]; S. aureus (VISA) 2013", "value": 0.25, "unit": "µg/mL"}, {"measurement": "MIC", "setting": "[3]; S. aureus (VISA) 2014", "value": 0.5, "unit": "µg/mL"}, {"measurement": "MIC", "setting": "[3]; S. aureus (VISA) 2015", "value": 0.06, "unit": "µg/mL"}, {"measurement": "MIC", "setting": "[3]; S. aureus (VISA) 2016", "value": 0.25, "unit": "µg/mL"}, {"measurement": "MIC", "setting": "[3]; S. aureus (VISA) 2017", "value": 0.5, "unit": "µg/mL"}, {"measurement": "MIC", "setting": "[3]; S. aureus (VISA) 2018", "value": 0.12, "unit": "µg/mL"}, {"measurement": "MIC", "setting": "[3]; S. aureus (VISA) 2019", "value": 4, "unit": "µg/mL"}, {"measurement": "MIC", "setting": "[3]; S. aureus (VISA) 2123", "value": 0.25, "unit": "µg/mL"}, {"measurement": "MIC", "setting": "[3]; S. aureus (VISA) NRS1/1723", "value": 0.25, "unit": "µg/mL"}, {"measurement": "MIC", "setting": "[4]; S. aureus (MSSA) 2127", "value": "> 16", "unit": "µg/mL"}, {"measurement": "MIC", "setting": "[4]; S. aureus (MSSA) 6167", "value": 1, "unit": "µg/mL"}, {"measurement": "MIC", "setting": "[4]; S. aureus (MSSA) 6168", "value": 2, "unit": "µg/mL"}, {"measurement": "MIC", "setting": "[4]; S. aureus (MSSA) 6170", "value": 2, "unit": "µg/mL"}, {"measurement": "MIC", "setting": "[4]; S. aureus (MSSA) 6316", "value": 2, "unit": "µg/mL"}, {"measurement": "MIC", "setting": "[4]; S. aureus (MSSA) 6317", "value": 1, "unit": "µg/mL"}, {"measurement": "MIC", "setting": "[4]; S. aureus (MSSA) 6318", "value": 2, "unit": "µg/mL"}, {"measurement": "MIC", "setting": "[4]; S. aureus (MSSA) 6499", "value": 1, "unit": "µg/mL"}, {"measurement": "MIC", "setting": "[4]; S. aureus (MSSA) 6500", "value": 1, "unit": "µg/mL"}, {"measurement": "MIC", "setting": "[4]; S. aureus (MSSA) 6502", "value": 1, "unit": "µg/mL"}, {"measurement": "MIC", "setting": "[5]; S. aureus (MRSA) 2167", "value": 0.12, "unit": "µg/mL"}, {"measurement": "MIC", "setting": "[5]; S. aureus (MRSA) 2168", "value": 0.25, "unit": "µg/mL"}, {"measurement": "MIC", "setting": "[5]; S. aureus (MRSA) 2169", "value": 0.25, "unit": "µg/mL"}, {"measurement": "MIC", "setting": "[5]; S. aureus (MRSA) 2170", "value": 0.25, "unit": "µg/mL"}, {"measurement": "MIC", "setting": "[5]; S. aureus (MRSA) 2171", "value": 0.25, "unit": "µg/mL"}, {"measurement": "MIC", "setting": "[5]; S. aureus (MRSA) 2293", "value": 0.25, "unit": "µg/mL"}, {"measurement": "MIC", "setting": "[5]; S. aureus (MRSA) 2294", "value": 0.25, "unit": "µg/mL"}, {"measurement": "MIC", "setting": "[5]; S. aureus (MRSA) 2295", "value": 0.25, "unit": "µg/mL"}, {"measurement": "MIC", "setting": "[5]; S. aureus (MRSA) 2296", "value": 0.25, "unit": "µg/mL"}, {"measurement": "MIC", "setting": "[5]; S. aureus (MRSA) 2297", "value": 0.25, "unit": "µg/mL"}, {"measurement": "MIC", "setting": "[5]; S. aureus (MRSA) 3880", "value": "> 16", "unit": "µg/mL"}, {"measurement": "MIC", "setting": "[5]; S. aureus (MRSA) 5373", "value": 1, "unit": "µg/mL"}, {"measurement": "MIC", "setting": "[5]; S. aureus (MRSA) 5666", "value": 1, "unit": "µg/mL"}, {"measurement": "MIC", "setting": "[5]; S. aureus (MRSA) 5702", "value": 1, "unit": "µg/mL"}, {"measurement": "MIC", "setting": "[5]; S. aureus (MRSA) 5999", "value": 1, "unit": "µg/mL"}, {"measurement": "MIC", "setting": "[5]; S. aureus (MRSA) 6165", "value": 1, "unit": "µg/mL"}, {"measurement": "MIC", "setting": "[5]; S. aureus (MRSA) 6169", "value": 0.5, "unit": "µg/mL"}, {"measurement": "MIC", "setting": "[5]; S. aureus (MRSA) 6174", "value": 1, "unit": "µg/mL"}, {"measurement": "MIC", "setting": "[5]; S. aureus (MRSA) 6311", "value": 1, "unit": "µg/mL"}, {"measurement": "MIC", "setting": "[5]; S. aureus (MRSA) 6312", "value": 1, "unit": "µg/mL"}, {"measurement": "MIC", "setting": "[5]; S. aureus (MRSA) 6313", "value": 1, "unit": "µg/mL"}, {"measurement": "MIC", "setting": "[5]; S. aureus (MRSA) 6315", "value": 1, "unit": "µg/mL"}, {"measurement": "MIC", "setting": "[5]; S. aureus (MRSA) 6320", "value": 1, "unit": "µg/mL"}, {"measurement": "MIC", "setting": "[5]; S. aureus (MRSA) 6498", "value": 1, "unit": "µg/mL"}, {"measurement": "MIC", "setting": "[5]; S. aureus (MRSA) 6501", "value": 1, "unit": "µg/mL"}, {"measurement": "MIC", "setting": "[5]; S. aureus (MRSA) 6505", "value": 1, "unit": "µg/mL"}, {"measurement": "MIC", "setting": "[5]; S. aureus (MRSA) 6506", "value": 1, "unit": "µg/mL"}, {"measurement": "MIC", "setting": "[5]; S. aureus (MRSA) NRS382/2119", "value": 1, "unit": "µg/mL"}, {"measurement": "MIC", "setting": "[5]; S. aureus (MRSA) NRS383/2120", "value": "> 16", "unit": "µg/mL"}, {"measurement": "MIC", "setting": "[5]; S. aureus (MRSA) NRS384/2011", "value": 1, "unit": "µg/mL"}, {"measurement": "number of strains tested with MIC not ≤ 2 μg/mL", "setting": "[6]", "value": 26}]}]}
